For this assay, the system named is HBsAg secretion, HepG2-Clone42 cells (Tet-inducible HBV-expressing, HBV ayw strain). In words: HBsAg assay (HBsAg ELISA, secreted HBV sAg from HepG2-Clone42 cells). The class given is cell-based. The essentials:
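HepG2-Clone42 cells (Tet-inducible, integrated 1.3-mer HBV ayw) treated 24 h post-seeding with five-fold serial compound dilutions, 0.5% DMSO final. Secreted HBsAg measured by ELISA (A450); EC50 for 50% reduction vs DMSO control after background subtraction, four-parameter logistic fit.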

The mark [1] stands for this setting: Hepatitis B virus, read-out: HBsAg (nM), EC50 = concentration at which HBsAg secretion was reduced 50% compared to DMSO control.
The mark [2] stands for this setting: read-out: HBsAg, EC50 = concentration at which HBsAg secretion was reduced 50% compared to DMSO control.

Read-outs that look alike come from different tables or passages of the source.

In the case of `CC(C)(C)C1Cn2nc3c(OCC(O)CO)cccc3c2-c2cc(=O)c(C(=O)O)cn21` (racemic) [Example 2.28, 6-(tert-butyl)-10-(2,3-dihydroxypropoxy)-2-oxo-6,7-dihydro-2H-pyrido[2′,1′:3,4]pyrazino[1,2-b]indazole-3-carboxylic Acid], the EC50 under setting [1] is over 100 nM.

For `CCOCCCOc1cccc2c3n(nc12)CC(C(C)(C)C)n1cc(C(=O)O)c(=O)cc1-3` (racemic) [Example 2.14, 6-(tert-butyl)-10-(3-ethoxypropoxy)-2-oxo-6,7-dihydro-2H-pyrido[2′,1′:3,4]pyrazino[1,2-b]indazole-3-carboxylic Acid], the EC50 under setting [1] is under 1 nM.

On to `CC(C)(C)C1Cn2nc3c(OC4CCNCC4)cccc3c2-c2cc(=O)c(C(=O)O)cn21` (racemic) [Example 2.27, 6-(tert-butyl)-2-oxo-10-(piperidin-4-yloxy)-6,7-dihydro-2H-pyrido[2′,1′:3,4]pyrazino[1,2-b]indazole-3-carboxylic Acid], for which, under setting [1], the EC50 is over 100 nM.

For the compound `COCCOCCCOc1cccc2c3n(nc12)CC(C(C)(C)C)n1cc(C(=O)O)c(=O)cc1-3` (racemic) [Example 2.21, 6-(tert-butyl)-10-(3-(2-methoxyethoxy)propoxy)-2-oxo-6,7-dihydro-2H-pyrido[2′,1′:3,4]pyrazino[1,2-b]indazole-3-carboxylic Acid], under setting [1], the EC50 is under 1 nM.

`COc1cccc2c3n(nc12)CC(C(C)(C)C)n1cc(C(=O)O)c(=O)cc1-3` (single isomer, unassigned) [Example 1.1-I, 6-(tert-butyl)-10-methoxy-2-oxo-6,7-dihydro-2H-pyrido[2′,1′:3,4]pyrazino[1,2-b]indazole-3-carboxylic acid]: the EC50 under setting [2] was under 1 nM.

For `COc1cccc2nn3c(c12)-c1cc(=O)c(C(=O)O)cn1C(C(C)(C)C)C3` (single isomer, unassigned) [Example 1.4-I, 6-(tert-butyl)-13-methoxy-2-oxo-6,7-dihydro-2H-pyrido[2′,1′:3,4]pyrazino[1,2-b]indazole-3-carboxylic acid], the EC50 under setting [2] was over 100 nM.

As to `CC(C)(C)C1Cn2nc3ccccc3c2-c2cc(=O)c(C(=O)O)cn21` (single isomer, unassigned) [Example 1.5-I, 6-(tert-butyl)-2-oxo-6,7-dihydro-2H-pyrido[2′,1′:3,4]pyrazino[1,2-b]indazole-3-carboxylic acid], under setting [2], the EC50 lay in the range of 1 to 100 nM.

Take `CC(C)(C)C1Cn2nc3c(OC4CCOCC4)cccc3c2-c2cc(=O)c(C(=O)O)cn21` (racemic) [Example 2.38, 6-(tert-butyl)-2-oxo-10-((tetrahydro-2H-pyran-4-yl)oxy)-6,7-dihydro-2H-pyrido[2′,1′:3,4]pyrazino[1,2-b]indazole-3-carboxylic Acid]: the EC50 under setting [1] lay in the range of 1 to 100 nM.

`CC(C)(C)C1Cn2nc3c(OCC4CCCO4)cccc3c2-c2cc(=O)c(C(=O)O)cn21` (centres unmarked) [Example 2.25, 6-(tert-butyl)-2-oxo-10-((tetrahydrofuran-2-yl)methoxy)-6,7-dihydro-2H-pyrido[2′,1′:3,4]pyrazino[1,2-b]indazole-3-carboxylic Acid]: the EC50 under setting [1] fell in the range of 1 to 100 nM.

Regarding `COCC(C)Oc1cccc2c3n(nc12)CC(C(C)(C)C)n1cc(C(=O)O)c(=O)cc1-3` (single isomer, unassigned) [Example 2.35-II, 6-(tert-butyl)-10-((1-methoxypropan-2-yl)oxy)-2-oxo-6,7-dihydro-2H-pyrido[2′,1′:3,4]pyrazino[1,2-b]indazole-3-carboxylic Acid], the EC50 under setting [2] fell in the range of 1 to 100 nM.

With `COCCCOc1cccc2c3n(nc12)CC(C(C)(C)C)n1cc(C(=O)O)c(=O)cc1-3` (racemic) [Example 2.31, 6-(tert-butyl)-10-(3-methoxypropoxy)-2-oxo-6,7-dihydro-2H-pyrido[2′,1′:3,4]pyrazino[1,2-b]indazole-3-carboxylic Acid], the EC50 under setting [1] is under 1 nM.

These data come from US10975078B2, “Fused indazole pyridone compounds as antivirals” (priority 2017, dated 2021).
